Assay results from patent US12630528B2, “Amino aryl derivative useful as diacylglycerol acyltransferase 2 inhibitor and use thereof” (LG CHEM, LTD., priority 2019, dated 2026).
pIC50: −log10 of the molar value.

Biological target: T1, human DGAT2 (Homo sapiens, UniProt Q96PD7)
T1 construct: FLAG (DYKDDDDK); made in house; host or cells: Sf-21 insect cells (BacPAK baculovirus system); membrane fraction used
T1 sequence (Q96PD7 1-388): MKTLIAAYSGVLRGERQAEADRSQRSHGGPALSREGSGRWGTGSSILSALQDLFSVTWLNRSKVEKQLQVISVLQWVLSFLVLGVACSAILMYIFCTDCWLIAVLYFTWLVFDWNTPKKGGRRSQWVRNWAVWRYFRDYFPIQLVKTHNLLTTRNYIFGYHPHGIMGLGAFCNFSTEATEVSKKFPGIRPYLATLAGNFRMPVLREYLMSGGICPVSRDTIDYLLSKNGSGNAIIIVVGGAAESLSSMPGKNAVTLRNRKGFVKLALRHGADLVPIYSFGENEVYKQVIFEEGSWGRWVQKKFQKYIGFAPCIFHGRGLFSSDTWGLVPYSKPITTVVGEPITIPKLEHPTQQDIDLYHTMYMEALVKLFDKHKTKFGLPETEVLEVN
Assay: DGAT2 enzyme activity inhibition, Phospholipid FlashPlate SPA
Type: biochemical
Details: recombinant human DGAT2 membrane protein from Sf-21 cells; inhibition of [14C]-TG production; 37° C.
Procedure, shortened: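 Sf-21 membranes expressing recombinant human DGAT2 (2 μg) preincubated with compound (3 nM–10 μM, 1% DMSO) and 50 μM 1,2 sn-oleoyl glycerol, 20 min at 37 °C, then 1 μM [14C]oleoyl-CoA for 15 min. [14C]-TG counted by SPA; inhibition as % of untreated.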

| pIC50 | SMILES |
| --- | --- |
| 6.89 | CCOc1ccccc1O[C@@H]1CCCN(c2cncc(Nc3cccc(N4CCC(C(=O)O)CC4)n3)n2)C1 [Example 56, (R)-1-(6-((6-(3-(2-ethoxyphenoxy)piperidin-1-yl)pyrazin-2-yl)amino)pyridin-2-yl)piperidine-4-carboxylic Acid] |
| 6.64 | CCOc1cccnc1O[C@@H]1CCCN(c2cncc(Nc3cccc(Oc4ccc(C(C)(C)C(=O)O)cc4)n3)n2)C1 [Example 94, (R)-2-(4-((6-((6-(3-((3-ethoxypyridin-2-yl)oxy)piperidin-1-yl)pyrazin-2-yl)amino)pyridin-2-yl)oxy)phenyl)-2-methylpropanoic Acid] |
| 6.52 | CCOc1ccccc1O[C@@H]1CCCN(c2cncc(Nc3cccc(-c4cnn(CC(C)(C)C(=O)O)c4)n3)n2)C1 [Example 86, (R)-3-(4-(6-((6-(3-(2-ethoxyphenoxy)piperidin-1-yl)pyrazin-2-yl)amino)pyridin-2-yl)-1H-pyrazol-1-yl)-2,2-dimethylpropanoic Acid] |
| 6.66 | CCOc1cccnc1O[C@@H]1CCCN(c2cncc(Nc3cccc(-c4cc(OC(C)(C)C(=O)O)ccc4F)n3)n2)C1 [Example 85, (R)-2-(3-(6-((6-(3-((3-ethoxypyridin-2-yl)oxy)piperidin-1-yl)pyrazin-2-yl)amino)pyridin-2-yl)-4-fluorophenoxy)-2-methylpropanoic Acid] |
| 6.57 | CCOc1cccnc1O[C@@H]1CCCN(c2cncc(Nc3cccc(-c4cc(CC(C)(C)C(=O)O)ccc4F)n3)n2)C1 [Example 79, (R)-3-(3-(6-((6-(3-((3-ethoxypyridin-2-yl)oxy)piperidin-1-yl)pyrazin-2-yl)amino)pyridin-2-yl)-4-fluorophenyl)-2,2-dimethylpropanoic Acid] |
| 7.19 | CCOc1cccnc1O[C@@H]1CCCN(c2cncc(Nc3ncc(C(F)(F)F)c(-c4cccc(CC(C)(C)C(=O)O)c4)n3)n2)C1 [Example 165, (R)-3-(3-(2-((6-(3-((3-ethoxypyridin-2-yl)oxy)piperidin-1-yl)pyrazin-2-yl)amino)-5-(trifluoromethyl)pyrimidin-4-yl)phenyl)-2,2-dimethylpropanoic Acid] |
| < 5.00 | CCOc1ccccc1O[C@@H]1CCCN(c2cncc(Nc3ccc(/C=C/C(=O)O)cn3)n2)C1 [Example 37, (R,E)-3-(6-((6-(3-(2-ethoxyphenoxy)piperidin-1-yl)pyrazin-2-yl)amino)pyridin-3-yl)acrylic Acid] |
| 5.80 | CCOc1ccccc1O[C@@H]1CCCN(c2cncc(Nc3nccc(-c4cccc(C(C)(C)C(=O)O)c4)n3)n2)C1 [Example 141, (R)-2-(3-(2-((6-(3-(2-ethoxyphenoxy)piperidin-1-yl)pyrazin-2-yl)amino)pyrimidin-4-yl)phenyl)-2-methylpropanoic Acid] |
| 5.77 | CCOc1ccccc1O[C@@H]1CCCN(c2cncc(Nc3nccc(-c4cccc(CCC(=O)O)c4)n3)n2)C1 [Example 145, (R)-3-(3-(2-((6-(3-(2-ethoxyphenoxy)piperidin-1-yl)pyrazin-2-yl)amino)pyrimidin-4-yl)phenyl)propanoic Acid] |
| 6.05 | CCOc1ccccc1O[C@@H]1CCCN(c2nccc(Nc3cccc(-c4ccc(NCC(=O)O)cc4)n3)n2)C1 [Example 75, (R)-(4-(6-((2-(3-(2-ethoxyphenoxy)piperidin-1-yl)pyrimidin-4-yl)amino)pyridin-2-yl)phenyl)glycine] |
| 6.70 | CCOc1ccccc1O[C@@H]1CCCN(c2cncc(Nc3nccc(-c4ccc(C(C)(C)C(=O)O)cc4)n3)n2)C1 [Example 143, (R)-2-(4-(2-((6-(3-(2-ethoxyphenoxy)piperidin-1-yl)pyrazin-2-yl)amino)pyrimidin-4-yl)phenyl)-2-methylpropanoic Acid] |
| 6.54 | CCOc1ccccc1O[C@@H]1CCCN(c2cncc(Nc3cccc(-c4cc(CC(C)(C)C(=O)O)ccc4F)n3)n2)C1 [Example 78, (R)-3-(3-(6-((6-(3-(2-ethoxyphenoxy)piperidin-1-yl)pyrazin-2-yl)amino)pyridin-2-yl)-4-fluorophenyl)-2,2-dimethylpropanoic Acid] |
| 6.23 | CCOc1cccnc1O[C@@H]1CCCN(c2cncc(Nc3ccnc(-c4ccc(OC(C)(C)C(=O)O)cc4)n3)n2)C1 [Example 179, (R)-2-(4-(4-((6-(3-((3-ethoxypyridin-2-yl)oxy)piperidin-1-yl)pyrazin-2-yl)amino)pyrimidin-2-yl)phenoxy)-2-methylpropanoic Acid] |
| 6.77 | CCOc1cccnc1O[C@@H]1CCCN(c2cncc(Nc3nc(-c4cccc(OC(C)(C)C(=O)O)c4)ccc3F)n2)C1 [Example 104, (R)-2-(3-(6-((6-(3-((3-ethoxypyridin-2-yl)oxy)piperidin-1-yl)pyrazin-2-yl)amino)-5-fluoropyridin-2-yl)phenoxy)-2-methylpropanoic Acid] |
| 6.85 | CCOc1ccccc1O[C@@H]1CCCN(c2cncc(Nc3cccc(-c4ccc(CC(C)(C)C(=O)O)cc4)n3)n2)C1 [Example 72, (R)-3-(4-(6-((6-(3-(2-ethoxyphenoxy)piperidin-1-yl)pyrazin-2-yl)amino)pyridin-2-yl)phenyl)-2,2-dimethylpropanoic Acid] |
| 5.30 | CCOc1ccccc1O[C@@H]1CCCN(c2nccc(Nc3nccc(-c4cccc(CC(C)(C)C(=O)O)c4)n3)n2)C1 [Example 149, (R)-3-(3-(2-((2-(3-(2-ethoxyphenoxy)piperidin-1-yl)pyrimidin-4-yl)amino)pyrimidin-4-yl)phenyl)-2,2-dimethylpropanoic Acid] |
| 6.72 | CCOc1ccccc1O[C@@H]1CCCN(c2cncc(Nc3nccc(-c4ccc(NC(C)(C)C(=O)O)cc4)n3)n2)C1 [Example 161, (R)-2-((4-(2-((6-(3-(2-ethoxyphenoxy)piperidin-1-yl)pyrazin-2-yl)amino)pyrimidin-4-yl)phenyl)amino)-2-methylpropanoic Acid] |
| < 5.00 | CCOc1ccccc1O[C@@H]1CCCN(c2cncc(Nc3nc4cc(CCC(=O)O)ccc4o3)n2)C1 [Example 16, (R)-3-(2-((6-(3-(2-ethoxyphenoxy)piperidin-1-yl)pyrazin-2-yl)amino)benzo[d]oxazol-5-yl)propanoic Acid] |
| 6.85 | CCOc1ccccc1O[C@@H]1CCCN(c2cncc(Nc3ccc(F)c(-c4cccc(CC(C)(C)C(=O)O)c4)n3)n2)C1 [Example 102, (R)-3-(3-(6-((6-(3-(2-ethoxyphenoxy)piperidin-1-yl)pyrazin-2-yl)amino)-3-fluoropyridin-2-yl)phenyl)-2,2-dimethylpropanoic Acid] |
| 6.64 | CCOc1cccnc1O[C@@H]1CCCN(c2cncc(Nc3nccc(-c4ccc(C(C)(C)C(=O)O)cc4)n3)n2)C1 [Example 144, (R)-2-(4-(2-((6-(3-((3-ethoxypyridin-2-yl)oxy)piperidin-1-yl)pyrazin-2-yl)amino)pyrimidin-4-yl)phenyl)-2-methylpropanoic Acid] |
| 6.09 | CCOc1cccnc1O[C@@H]1CCCN(c2cncc(Nc3nccc(-c4ccc(CC(=O)O)cc4)n3)n2)C1 [Example 152, (R)-2-(4-(2-((6-(3-((3-ethoxypyridin-2-yl)oxy)piperidin-1-yl)pyrazin-2-yl)amino)pyrimidin-4-yl)phenyl)acetic Acid] |
| 5.96 | CCOc1ccccc1O[C@@H]1CCCN(c2cncc(Nc3ccn(-c4cccc(CC(C)(C)C(=O)O)c4)n3)n2)C1 [Example 69, (R)-3-(3-(3-((6-(3-(2-ethoxyphenoxy)piperidin-1-yl)pyrazin-2-yl)amino)-1H-pyrazol-1-yl)phenyl)-2,2-dimethylpropanoic Acid] |
| 6.01 | CCOc1cccnc1O[C@@H]1CCCN(c2cncc(Nc3cccc(-c4ccc(NCC(=O)O)cc4)n3)n2)C1 [Example 74, (R)-(4-(6-((6-(3-((3-ethoxypyridin-2-yl)oxy)piperidin-1-yl)pyrazin-2-yl)amino)pyridin-2-yl)phenyl)glycine] |
| 6.05 | CCOc1ccccc1O[C@@H]1CCCN(c2cncc(Nc3cccc(Oc4ccc(CC(=O)O)cc4)n3)n2)C1 [Example 97, (R)-2-(4-((6-((6-(3-(2-ethoxyphenoxy)piperidin-1-yl)pyrazin-2-yl)amino)pyridin-2-yl)oxy)phenyl)acetic Acid] |
| 5.74 | CCOc1ccccc1O[C@@H]1CCCN(c2cncc(Nc3cc(-c4cccc(CCC(=O)O)c4)ccn3)n2)C1 [Example 46, (R)-3-(3-(2-((6-(3-(2-ethoxyphenoxy)piperidin-1-yl)pyrazin-2-yl)amino)pyridin-4-yl)phenyl)propanoic Acid] |
| < 5.00 | CCOc1ccccc1O[C@@H]1CCCN(c2cncc(Nc3ccn(CC(=O)O)n3)n2)C1 [Example 20, (R)-2-(3-((6-(3-(2-ethoxyphenoxy)piperidin-1-yl)pyrazin-2-yl)amino)-1H-pyrazol-1-yl)acetic Acid] |
| 5.43 | CCOc1ccccc1O[C@@H]1CCCN(c2cncc(Nc3cccc(N4CCC[C@H](OCC(=O)O)C4)n3)n2)C1 [Example 59] |
| 6.46 | CCOc1cccnc1O[C@@H]1CCCN(c2cncc(Nc3nc(-c4cc(CC(C)(C)C(=O)O)ccc4F)ccc3F)n2)C1 [Example 108, (R)-3-(3-(6-((6-(3-((3-ethoxypyridin-2-yl)oxy)piperidin-1-yl)pyrazin-2-yl)amino)-5-fluoropyridin-2-yl)-4-fluorophenyl)-2,2-dimethylpropanoic Acid] |
| ≤ 4.89 | CCOc1ccccc1O[C@@H]1CCCN(c2cncc(Nc3nc4ccccc4s3)n2)C1 [Example 5, (R)—N-(6-(3-(2-ethoxyphenoxy)piperidin-1-yl)pyrazin-2-yl)benzo[d]thiazol-2-amine] |
